Laboratory results taken from article PMC12006963, “Application of Deuterium in an M1 Positive Allosteric Modulator Back-Up Program: The Discovery of VU6045422” (ACS Chemical Neuroscience, 2025).

Columns and labels:
[1] = biological target: Tachykinin NK1 (Homo sapiens, UniProt P25103); assay: Eurofins radioligand binding
[2] = system: GABAA, Muscimol, Central; assay: Eurofins radioligand binding; parameters: species or system Rat
[3] = biological target: Serotonin (5-HT1A) (Homo sapiens, UniProt P08908); assay: Eurofins radioligand binding
[4] = biological target: Androgen (Testosterone) (Homo sapiens, UniProt P10275); assay: Eurofins radioligand binding
[5] = system: Purinergic P2Y, Non-Selective; assay: Eurofins radioligand binding; parameters: species or system Rat
[6] = biological target: Histamine H1 (Homo sapiens, UniProt P35367); assay: Eurofins radioligand binding
[7] = system: seizure activity; assay: Behavioral manifestations of seizure activity (modified Racine score); type: in vivo, C57Bl/6 mice; conditions: 100 mg/kg IP in mice; modified Racine scale 0-5
Description: page 9: Brain plasma concentration ratio (Kp) was calculated by dividing brain concentration by plasma concentration for each animal. Unbound brain to unbound plasma concentration ratio (Kp,uu) is calculated using the following formula: Kp,uu = (Brain ng/g x brain fu)/(plasma ng/ml x plasma fu). Pharmacokinetic profiles in rats following oral single escalating doses Single escalating oral dosing in Sprague-Dawley rats was performed at Frontage Laboratories according to their non-GLP Standard Operating Procedure and IACUC protocols. In short, compounds were formulated in 10% Tween 80 in water and dosed at 10 mg/kg. At different times, arterial blood was collected from a femoral artery catheter, and compound concentration was determined in plasma by LC-MS/MS following their non-GLP protocol. PK parameters were determined using Phoenix WinNonlin software (version 6.3). In-vitro determination of blood-brain barrier penetration potential Blood-brain barrier penetration was determined using MDR1-MDCK cell monolayers by Absorption Systems, following their protocol. In short, compounds were incubated at […] final concentration on one side of the cell monolayer for 2 hours. […] Animals were monitored continuously and scored for behavioral manifestations of seizure activity at 5, 15, 30 min, and 1 h. Behavioral manifestations of seizures were scored using a modified Racine scoring system. […]

[8] = biological target: Calcium Channel N-Type (Rattus norvegicus, UniProt Q02294); assay: Eurofins radioligand binding
Sequence of Calcium Channel N-Type (Q02294 whole entry): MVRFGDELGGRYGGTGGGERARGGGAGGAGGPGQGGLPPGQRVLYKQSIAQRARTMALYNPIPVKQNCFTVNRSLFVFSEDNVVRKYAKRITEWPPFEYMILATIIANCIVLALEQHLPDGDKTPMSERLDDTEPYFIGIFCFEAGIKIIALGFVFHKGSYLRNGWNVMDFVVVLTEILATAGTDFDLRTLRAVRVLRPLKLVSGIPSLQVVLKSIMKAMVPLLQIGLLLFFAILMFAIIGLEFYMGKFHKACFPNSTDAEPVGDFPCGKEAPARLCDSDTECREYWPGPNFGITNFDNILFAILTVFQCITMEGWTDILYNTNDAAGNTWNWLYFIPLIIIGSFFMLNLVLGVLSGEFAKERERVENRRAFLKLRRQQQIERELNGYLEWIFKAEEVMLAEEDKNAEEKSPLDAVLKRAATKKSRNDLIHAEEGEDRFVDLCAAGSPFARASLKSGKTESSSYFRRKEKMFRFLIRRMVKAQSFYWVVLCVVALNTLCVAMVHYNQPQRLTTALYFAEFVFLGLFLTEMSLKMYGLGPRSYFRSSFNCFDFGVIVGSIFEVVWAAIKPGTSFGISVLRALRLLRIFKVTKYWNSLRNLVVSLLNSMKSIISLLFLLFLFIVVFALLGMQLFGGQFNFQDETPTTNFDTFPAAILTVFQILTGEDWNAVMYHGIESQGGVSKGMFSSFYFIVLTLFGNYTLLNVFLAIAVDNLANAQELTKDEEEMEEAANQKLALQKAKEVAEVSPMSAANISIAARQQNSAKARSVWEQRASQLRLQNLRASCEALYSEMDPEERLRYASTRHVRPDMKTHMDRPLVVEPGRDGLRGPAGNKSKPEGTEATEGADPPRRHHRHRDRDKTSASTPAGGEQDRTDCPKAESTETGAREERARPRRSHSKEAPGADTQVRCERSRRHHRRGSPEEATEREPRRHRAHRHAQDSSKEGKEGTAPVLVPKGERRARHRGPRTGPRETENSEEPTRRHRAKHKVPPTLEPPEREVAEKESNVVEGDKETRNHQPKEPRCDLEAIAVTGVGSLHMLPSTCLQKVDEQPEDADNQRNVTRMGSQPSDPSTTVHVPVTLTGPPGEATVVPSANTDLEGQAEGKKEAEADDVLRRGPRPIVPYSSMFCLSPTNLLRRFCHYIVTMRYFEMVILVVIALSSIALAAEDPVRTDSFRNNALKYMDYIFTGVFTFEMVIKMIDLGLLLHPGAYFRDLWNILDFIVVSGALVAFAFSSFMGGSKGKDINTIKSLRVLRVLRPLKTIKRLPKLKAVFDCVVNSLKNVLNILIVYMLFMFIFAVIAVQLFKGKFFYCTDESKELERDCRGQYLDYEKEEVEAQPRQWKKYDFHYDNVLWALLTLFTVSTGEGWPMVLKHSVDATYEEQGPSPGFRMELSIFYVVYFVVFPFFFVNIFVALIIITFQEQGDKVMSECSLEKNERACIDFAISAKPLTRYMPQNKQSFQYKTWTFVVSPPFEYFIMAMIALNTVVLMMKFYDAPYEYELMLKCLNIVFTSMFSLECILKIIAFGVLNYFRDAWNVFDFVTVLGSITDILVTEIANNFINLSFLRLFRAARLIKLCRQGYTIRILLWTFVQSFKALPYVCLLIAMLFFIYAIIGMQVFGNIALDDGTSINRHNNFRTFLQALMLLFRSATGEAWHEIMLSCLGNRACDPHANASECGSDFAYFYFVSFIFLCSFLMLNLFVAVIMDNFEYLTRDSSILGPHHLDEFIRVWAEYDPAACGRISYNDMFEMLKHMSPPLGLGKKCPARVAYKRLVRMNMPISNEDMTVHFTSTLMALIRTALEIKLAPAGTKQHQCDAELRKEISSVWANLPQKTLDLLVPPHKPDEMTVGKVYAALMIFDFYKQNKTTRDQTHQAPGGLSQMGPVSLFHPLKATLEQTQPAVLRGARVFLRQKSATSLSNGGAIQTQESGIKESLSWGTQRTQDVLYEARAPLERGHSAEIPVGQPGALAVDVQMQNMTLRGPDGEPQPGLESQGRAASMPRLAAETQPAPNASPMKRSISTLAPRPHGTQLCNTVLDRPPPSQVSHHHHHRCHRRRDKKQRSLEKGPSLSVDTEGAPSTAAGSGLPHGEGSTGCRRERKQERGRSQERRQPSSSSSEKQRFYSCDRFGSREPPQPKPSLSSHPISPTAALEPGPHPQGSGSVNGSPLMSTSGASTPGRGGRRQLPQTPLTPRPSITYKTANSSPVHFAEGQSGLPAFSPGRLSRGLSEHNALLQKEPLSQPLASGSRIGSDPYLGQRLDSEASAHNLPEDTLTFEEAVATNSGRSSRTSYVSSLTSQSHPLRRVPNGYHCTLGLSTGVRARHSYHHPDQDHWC

Sequence of Histamine H1 (P35367 whole entry): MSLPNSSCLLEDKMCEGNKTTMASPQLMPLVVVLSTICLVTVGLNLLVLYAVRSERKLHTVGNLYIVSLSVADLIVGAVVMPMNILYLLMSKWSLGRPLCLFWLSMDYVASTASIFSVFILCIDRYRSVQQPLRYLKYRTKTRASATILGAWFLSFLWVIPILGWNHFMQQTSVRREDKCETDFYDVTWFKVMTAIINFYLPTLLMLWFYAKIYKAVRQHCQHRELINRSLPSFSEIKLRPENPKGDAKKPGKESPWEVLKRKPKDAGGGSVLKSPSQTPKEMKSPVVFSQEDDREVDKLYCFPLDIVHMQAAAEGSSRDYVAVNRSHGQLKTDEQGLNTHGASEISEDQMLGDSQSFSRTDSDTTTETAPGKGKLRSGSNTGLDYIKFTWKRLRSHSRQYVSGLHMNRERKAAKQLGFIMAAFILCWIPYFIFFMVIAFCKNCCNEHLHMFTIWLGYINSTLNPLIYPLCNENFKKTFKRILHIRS
Sequence of Serotonin (5-HT1A) (P08908 whole entry): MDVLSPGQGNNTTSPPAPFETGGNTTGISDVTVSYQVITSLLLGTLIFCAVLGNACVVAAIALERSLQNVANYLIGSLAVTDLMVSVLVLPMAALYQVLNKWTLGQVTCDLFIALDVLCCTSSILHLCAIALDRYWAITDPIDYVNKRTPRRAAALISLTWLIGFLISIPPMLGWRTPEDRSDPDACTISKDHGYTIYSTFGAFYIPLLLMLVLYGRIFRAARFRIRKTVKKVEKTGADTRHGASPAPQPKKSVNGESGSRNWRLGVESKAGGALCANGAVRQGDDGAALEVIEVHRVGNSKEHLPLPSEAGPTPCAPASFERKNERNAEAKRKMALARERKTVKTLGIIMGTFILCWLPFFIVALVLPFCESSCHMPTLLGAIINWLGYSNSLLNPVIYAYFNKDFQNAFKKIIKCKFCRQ
Sequence of Androgen (Testosterone) (P10275 whole entry): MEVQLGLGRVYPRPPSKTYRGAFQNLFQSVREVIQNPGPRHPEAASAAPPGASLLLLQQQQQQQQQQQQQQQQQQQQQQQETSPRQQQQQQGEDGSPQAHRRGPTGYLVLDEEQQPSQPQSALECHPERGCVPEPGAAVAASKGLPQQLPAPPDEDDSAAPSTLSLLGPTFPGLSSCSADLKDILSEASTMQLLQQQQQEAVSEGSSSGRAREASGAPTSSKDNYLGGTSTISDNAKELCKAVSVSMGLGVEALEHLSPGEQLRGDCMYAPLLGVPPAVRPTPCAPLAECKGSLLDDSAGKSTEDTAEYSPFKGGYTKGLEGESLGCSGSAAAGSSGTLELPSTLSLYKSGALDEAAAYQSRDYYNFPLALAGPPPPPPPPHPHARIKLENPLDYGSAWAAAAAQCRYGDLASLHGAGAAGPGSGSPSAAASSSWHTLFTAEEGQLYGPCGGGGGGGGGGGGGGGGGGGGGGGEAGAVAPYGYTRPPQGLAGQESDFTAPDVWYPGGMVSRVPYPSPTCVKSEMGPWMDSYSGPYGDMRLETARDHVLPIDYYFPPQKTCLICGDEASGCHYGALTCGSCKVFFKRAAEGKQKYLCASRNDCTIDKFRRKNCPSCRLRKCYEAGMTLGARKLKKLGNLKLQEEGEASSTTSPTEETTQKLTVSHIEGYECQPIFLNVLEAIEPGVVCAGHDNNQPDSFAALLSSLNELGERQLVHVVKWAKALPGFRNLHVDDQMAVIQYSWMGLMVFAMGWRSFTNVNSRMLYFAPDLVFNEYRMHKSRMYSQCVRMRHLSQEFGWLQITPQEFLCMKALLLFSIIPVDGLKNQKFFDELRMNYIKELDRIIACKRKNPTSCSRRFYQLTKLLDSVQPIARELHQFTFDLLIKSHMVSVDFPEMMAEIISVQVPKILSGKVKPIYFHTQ
Sequence of Tachykinin NK1 (P25103 whole entry): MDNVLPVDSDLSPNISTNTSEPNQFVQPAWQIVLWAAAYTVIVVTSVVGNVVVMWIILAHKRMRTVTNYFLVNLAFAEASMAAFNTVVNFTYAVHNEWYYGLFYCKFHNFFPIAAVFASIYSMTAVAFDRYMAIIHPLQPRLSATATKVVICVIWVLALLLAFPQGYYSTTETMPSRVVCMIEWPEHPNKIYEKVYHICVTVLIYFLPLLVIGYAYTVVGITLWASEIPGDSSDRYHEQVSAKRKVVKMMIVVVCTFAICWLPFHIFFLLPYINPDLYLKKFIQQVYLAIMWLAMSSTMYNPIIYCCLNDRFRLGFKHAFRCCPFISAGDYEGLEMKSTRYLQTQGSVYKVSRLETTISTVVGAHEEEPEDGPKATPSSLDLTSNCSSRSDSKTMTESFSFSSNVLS

`[2H]C1([2H])c2ncccc2C(=O)N1Cc1c(F)cc(-c2cccc3nn(C([2H])([2H])[2H])cc23)cc1F` [compound 5] was tested. Which inhibition at 10 µM [1] did it give?
Its inhibition at 10 µM is 4%.

And the “% Inhibition at 10 µM” value [2]?
The value was 0%.

And the inhibition at 10 µM [3]?
The inhibition at 10 µM was -5%.

What about the inhibition at 10 µM [4] of the same molecule?
Its inhibition at 10 µM is 0%.

And the “% Inhibition at 10 µM” value [5]?
Its value is 9%.

What about the inhibition at 10 µM [6] of the same molecule?
Its inhibition at 10 µM is 2%.

What about the Racine score [7] of the same molecule?
The Racine score was 1.

What about the inhibition at 10 µM [8] of the same molecule?
The inhibition at 10 µM was -2%.
